Laboratory results: patent US20250051263A1, “NOVEL IONIZABLE LIPIDS AND LIPID NANOPARTICLES AND METHODS OF USING THE SAME” (Sail Biomedicines, Inc., priority 2021, published 2025)

How the values were obtained:
[1] = test system: Balb/c mice; test: EPO levels in plasma by EPO MSD kit after IV injection of EPO mRNA LNP; type: in vivo
Description: 8-9 week old female Balb/c mice are utilized for bioluminescence-based ionizable lipid screening efforts. Mice are obtained from Jackson Laboratories (JAX Stock: 000651) and allowed to acclimate for one week prior to manipulations. Animals are placed under a heat lamp for a few minutes before introducing them to a restraining chamber. The tail is wiped with alcohol pads (Fisher Scientific) and 100 μL of a lipid nanoparticle composition descrbed above containing 10 ug total mRNA (5 ug Fluc+5 ug EPO) is injected intravenously using a 29 G insulin syringe (Covidien). Any resulting bleeding is stemmed using a sterile gauze pad (Fisher Scientific) and animals are placed back into their home cage. 4-6 hours post-dose, animals are injected with 200 μL of 15 mg/mL D-Luciferin (GoldBio) and placed in an isoflurane induction chamber set to deliver 2.5% isoflurane delivered at an oxygen flow rate of 1-2 liters per min. After 5 minutes of isoflurane exposure, mice are placed in set nose cones inside the IVIS Lumina LT imager (PerkinElmer). LivingImage software is utilized for imaging. Whole body bio-luminescence is captured at auto-exposure after which animals are removed from the IVIS and placed into a CO2 chamber for euthanasia. Cardiac puncture is performed on each animal after placing it in dorsal recumbency, and blood collection is performed using a 25 G insulin syringe (BD). Blood is collected in Lithium-Heparin coated tubes (Fisher Scientific) and immediately placed on ice. Once all blood samples are collected, tubes are spun at 2000 G for 10 minutes using a tabletop centrifuge and plasma is aliquoted into individual Eppendorf tubes (Fisher Scientific) and stored at −80 C for subsequent EPO quantification. EPO levels in plasma are determined using EPO MSD kit (Meso Scale Diagnostics).
8-9 week old female Balb/c mice were utilized for bioluminescence-based ionizable lipid screening efforts. Mice were obtained from Jackson Laboratories (JAX Stock: 000651) and allowed to acclimate for one week prior to manipulations. Animals were placed under a heat lamp for a few minutes before introducing them to a restraining chamber. The tail was wiped with alcohol pads (Fisher Scientific) and, for each LNP composition descrbed above, 100 μL of a lipid nanoparticle composition descrbed above containing 10 μg total mRNA (5 μg Fluc+5 μg EPO, 5 μg Fluc+5 μg Cre, or 5 μg EGFP) was injected intravenously using a 29 G insulin syringe (Covidien).
4-6 hours post-dose, animals were injected with 200 μL of 15 mg/mL D-Luciferin (GoldBio), and placed in set nose cones inside the IVIS Lumina LT imager (PerkinElmer). LivingImage software was utilized for imaging. Whole body bio-luminescence was captured at auto-exposure after which animals are removed from the IVIS and placed into a CO2 chamber for euthanasia. Cardiac puncture was performed on each animal after placing it in dorsal recumbency, and blood collection was performed using a 25 G insulin syringe (BD). Once all blood samples were collected, tubes are spun at 2000 G for 10 minutes using a tabletop centrifuge and plasma was aliquoted into individual Eppendorf tubes (Fisher Scientific) and stored at −80° C. for subsequent EPO quantification. EPO levels in plasma were determined using EPO MSD kit (Meso Scale Diagnostics).

[2] = TNS (pKa) assay, apparent LNP pKa; type: physicochemical; settings: for pKa (TNS): Example 5 LNP lipid:DOPE:Plant Cholesterol:DMPE-PEG2k 35:16:46.5:2.5, FLUC/EPO 1:1 mRNA, N:P 6:1
Description: (protocol adapted from: A Novel Amino Lipid Series for mRNA Delivery: Improved Endosomal Escape and Sustained Pharmacology and Safety in Non-human Primates, Sabnis, Staci et al., Molecular Therapy, Volume 26, Issue 6, 1509-1519) 20 buffers (10 mM sodium phosphate, 10 mM sodium borate, 10 mM sodium citrate, and 150 mM sodium chloride, in Distilled Water) of unique pH values ranging from 3.0-12.0 were prepared using 1M sodium hydroxide and 1M hydrochloric acid. 3.25 uL of LNPs (0.04 mg/mL mRNA, in PBS) were incubated with 2 μL of TNS reagent (0.3 mM, in DMSO) and 90 μL of buffer for each pH value (described above) in a 96-well black-walled plate. Each pH condition was performed in triplicate wells. The TNS fluorescence was measured using a Biotek Cytation Plate reader at excitation/emission wavelengths of 321/445 nm. The fluorescence values were then plotted and fit using a 4-parameter sigmoid curve. From the fit, the pH value yielding the half-maximal fluorescence was calculated and reported as the apparent LNP pKa value.
For pKa measurement, a […] assay was conducted according to those described in Sabnis et al., Molecular Therapy, 26(6):1509-19), which is incorporated herein by reference in its entirety. Briefly, 20 buffers (10 mM sodium phosphate, 10 mM sodium borate, 10 mM sodium citrate, and 150 mM sodium chloride, in distilled Water) of unique pH values ranging from 3.0-12.0 were prepared using 1M sodium hydroxide and 1M hydrochloric acid. 3.25 μL of a LNP composition (0.04 mg/mL mRNA, in PBS) was incubated with 2 μL of TNS reagent (0.3 mM, in DMSO) and 90 μL of buffer for each pH value (described above) in a 96-well black-walled plate. Each pH condition was performed in triplicate wells. The TNS fluorescence was measured using a Biotek Cytation Plate reader at excitation/emission wavelengths of 321/445 nm. The fluorescence values were then plotted and fit using a 4-parameter sigmoid curve. From the fit, the pH value yielding the half-maximal fluorescence was calculated and reported as the apparent LNP pKa value.

[3] = mRNA encapsulation efficiency, Quant-iT RiboGreen RNA Assay; type: physicochemical; settings: LNP ionizable lipid:DSPC:Plant Chol.:DMPE-PEG2k 50:10:38.5:1.5
[4] = Example 5 LNP (DOPE 35:16:46.5:2.5), 5 μg FLUC + 5 μg EPO
[5] = LNP lipid:DSPC:Plant Chol.:DMPE-PEG2k 50:10:38.5:1.5, 5 ug Fluc+5 ug EPO mRNA
[6] = LNP lipid:DOPE:Plant Chol.:DMPE-PEG2k 35:16:46.5:2.5 (Table 1), 5 ug Fluc+5 ug EPO mRNA
[7] = LNP ionizable lipid:DOPE:Plant Chol.:DMPE-PEG2k 35:16:46.5:2.5 (Table 1)
[8] = LNP ionizable lipid:DSPC:Plant Chol.:DMPE-PEG2k 50:10:38.5:1.5

SMILES	hEPO [1, 4]	hEPO [1, 5]	pKa (TNS) [2]	% EE [3] [%]	hEPO [1, 6]	pKa [2, 7]	pKa [2, 8]
CCCCCCCCCCCOC(=O)CCCCCN(CCCCCCCC(=O)OC(CCCCCCCC)CCCCCCCC)CCOC(=O)OCCN(CCCCCCCC(=O)OC(CCCCCCCC)CCCCCCCC)CCCCCC(=O)OCCCCCCCCCCC [Compound 2218, 1-octylnonyl 8-[2-[2-[[8-(1-octylnonoxy)-8-oxo-octyl]-(6-oxo-6-undecoxy-hexyl)amino]ethoxycarbonyloxy]ethyl-(6-oxo-6-undecoxy-hexyl)amino]octanoate]	9.6E+01	8.40E+01	4.34	86.5			
CCCCCCCCCCCOC(=O)CCCCCN(CCCCCCCC(=O)OC(CCCCCCCC)CCCCCCCC)CCNC(=O)CC(=O)NCCN(CCCCCCCC(=O)OC(CCCCCCCC)CCCCCCCC)CCCCCC(=O)OCCCCCCCCCCC [Compound 2220, 1-octylnonyl 8-[2-[[3-[2-[[8-(1-octylnonoxy)-8-oxo-octyl]-(6-oxo-6-undecoxy-hexyl)amino]ethylamino]-3-oxo-propanoyl]amino]ethyl-(6-oxo-6-undecoxy-hexyl)amino]octanoate]	7.1E+05	6.99E+05	6.02	91			
CCCCCCCCCCCOC(=O)CCCCCN(CCCCCCCC(=O)OC(CCCCCCCC)CCCCCCCC)CCNC(=O)/C=C/C(=O)NCCN(CCCCCCCC(=O)OC(CCCCCCCC)CCCCCCCC)CCCCCC(=O)OCCCCCCCCCCC [Compound 2252, 1-octylnonyl 8-[2-[[(E)-4-[2-[[8-(1-octylnonoxy)-8-oxo-octyl]-(6-oxo-6-undecoxy-hexyl)amino]ethylamino]-4-oxo-but-2enoyl]amino]ethyl-(6-oxo-6-undecoxy-hexyl)amino]octanoate]	5.6E+05	2.03E+04	6.06	70.4	5.62E+05	6.06	5.49
C=C(CN(CCCCCCCC(=O)OC(CCCCCCCC)CCCCCCCC)CCCCCC(=O)OCCCCCCCCCCC)CN(CCCCCCCC(=O)OC(CCCCCCCC)CCCCCCCC)CCCCCC(=O)OCCCCCCCCCCC [Compound 2253, 1-octylnonyl 8-[2-[[[8-(1-octylnonoxy)-8-oxo-octyl]-(6-oxo-6-undecoxy-hexyl)amino]methyl]allyl-(6-oxo-6-undecoxy-hexyl)amino]octanoate]	8.9E+01	8.89E+01	3.66	27.3	8.89E+01	3.66	3.48
CCCCCCCCCCCC(=O)OCCCCCN(CCCCCCCC(=O)OC(CCCCCCCC)CCCCCCCC)CCNC(=O)CCC(=O)NCCN(CCCCCCCC(=O)OC(CCCCCCCC)CCCCCCCC)CCCCCOC(=O)CCCCCCCCCCC [Compound 2354, 5-[2-[[4-[2-[5-dodecanoyloxypentyl-[8-(1-octylnonoxy)-8-oxo-octyl]amino]ethylamino]-4-oxo-butanoyl]amino]ethyl-[8-(1-octylnonoxy)-8-oxo-octyl]amino] pentyl dodecanoate]	1.4E+06		6.47				
CCCCCCCCCCC(CC)OC(=O)CCCCCN(CCCCCCCC(=O)OC(CCCCCCCC)CCCCCCCC)CCNC(=O)CCC(=O)NCCN(CCCCCCCC(=O)OC(CCCCCCCC)CCCCCCCC)CCCCCC(=O)OC(CC)CCCCCCCCCC (stereo not shown) [Compound 2356, 1-octylnonyl 8-[[6-(1-ethylundecoxy)-6-oxo-hexyl]-[2-[[4-[2-[[6-(1-ethylundecoxy)-6-oxo-hexyl]-[8-(1-octylnonoxy)-8-oxo-octyl]amino]ethylamino]-4-oxo-butanoyl]amino]ethyl]amino]octanoate]	1.3E+08		6.01				
CCCCCCCCCCCOC(=O)CCCCCN(CCCCCCCC(=O)OCCCC(CCCCC)CCCCC)CCN1CCN(CCN(CCCCCCCC(=O)OCCCC(CCCCC)CCCCC)CCCCCC(=O)OCCCCCCCCCCC)CC1 [Compound 2397, 4-pentylnonyl 8-[2-[4-[2-[[8-oxo-8-(4-pentylnonoxy)octyl]-(6-oxo-6-undecoxy-hexyl)amino]ethyl]piperazin-1-yl]ethyl-(6-oxo-6-undecoxy-hexyl)amino]octanoate]	1.5E+06		6.44				
